Reference: patent publication US6958345B2, “2-hydroxymethylcyclopropylidene methylpurines and -pyrimidines as antiviral agents” (The Regents of the University of Michigan, priority 1997, dated 2005)
Like-named read-outs stand apart in the source and are kept apart here.

Tests used:
HCMV = HCMV plaque reduction assay in HFF cells; format: cell-based, Human CMV (HCMV); conditions: for IC50: HFF cells, plaque reduction; for activity against HCMV (in words): racemic analogues
Protocol: (§1) Cells and viruses. The routine growth and passage of KB cells was performed in monolayer cultures using minimal essential medium (MEM) with either Hanks salts [MEM(H)] or Earle salts [MEM(E)] supplemented with 10% calf serum. The sodium bicarbonate concentration was varied to meet the buffering capacity required. Cultures of diploid human foreskin fibroblasts (HFF) or MRC-5 cells were grown in medium consisting of MEM(E) with 10% fetal bovine serum. Cells were passaged at 1:2 to 1:10 dilutions according to conventional procedures by using 0.05% trypsin plus 0.02% EDTA in a HEPES buffered salt solution (HBS) (Shipman, C., Jr., Proc. Soc. Exp. Biol. 130:305-310 (1969)) as described previously. Turk, S. R., et al., Antimicrob. Agents Chemother. 31:544-550 (1987). HFF and MRC-5 cells were passaged only at 1:2 dilutions. CEM cells were maintained in suspension culture as detailed previously. Kucera, L. S., et al., AIDS Res. Human Retroviruses 9:307-314 (1993).
(§2) Virological procedures. Stock HCMV was prepared by infecting HFF cells at a multiplicity of infection (m.o.i.) of <0.01 plaque-forming units (p.f.u.) per cell. Cell growth medium was changed every four days until cytopathology was evident in all cells (approximately 21 days). Supernatant fluids were retained as the virus stock. High titer HSV-1 stocks were prepared by infecting KB cells at an m.o.i. of <0.1 as detailed previously. Turk, S. R., et al., Antimicrob. Agents Chemother. 31:544-550 (1987). Virus titers were determined using monolayer cultures of HFF cells for HCMV and monolayer cultures of BSC-1 cells for HSV-1 as described earlier. Prichard, M. N., et al., J. Virol. Methods 28:101-106 (1990). Briefly, HFF or BSC-1 cells were planted as described above in 96-well cluster dishes and incubated overnight at 37° C. in a humidified 3% CO297% air atmosphere. The next day cultures were inoculated with HCMV or HSV-1 and serially diluted 1:3 across the remaining eleven columns of the 96-well plate. Cultures were incubated at 37° C. for 2 hr to permit virus adsorption and then virus inoculum was replaced with 0.2 mL of fresh medium. Cultures were incubated for seven days for HCMV, two or three days for HSV-1, medium was removed, and the cell sheets were stained with 0.1% crystal violet in 20% methanol. Plaques were enumerated under 20-fold magnification in wells having the dilution which gave 5 to 20 plaques per well. Virus titers were calculated according to the following Formula: Titer (p.f.u./mL)=number of plaques×5×3^n; where n represents the nth dilution of the virus used to infect the well in which plaques were enumerated.
(a) HCMV. The effect of compounds on the replication of HCMV has been measured using a plaque reduction assay. HFF cells in 24-well cluster dishes were infected with approximately 100 p.f.u. of HCMV per cm^2 cell sheet using the procedures detailed above. Following virus adsorption, compounds dissolved in growth medium were added to duplicate wells in three to six selected concentrations. Following incubation at 37° C. for 7 to 10 days, cell sheets were fixed, stained with crystal violet and microscopic plaques enumerated as described above. Drug effects were calculated as a percentage of reduction in number of plaques in the presence of each drug concentration compared to the number observed in the absence of drug. Ganciclovir (DHPG) was used as a positive control in all experiments.
(§3) Data Analysis. Dose-response relationships were constructed by linearly regressing the percent inhibition of parameters derived in the preceding sections against log drug concentrations. Fifty-percent inhibitory (IC50) concentrations were calculated from the regression lines. Samples containing positive controls (acyclovir for HSV-1, ganciclovir for HCMV, and 2-acetylpyridine thiosemicarbazone for cytotoxicity) were used in all assays.

HSV-1 = HSV-1 ELISA in BSC-1 cells; format: cell-based, herpes simplex 1 (HSV-1); conditions: for IC50: ELISA
Protocol: as §2
(b) HSV-1. An enzyme-linked immunosorbent assay (ELISA) was employed to detect HSV-1. 96-well cluster dishes were planted with BSC-1 cells at 10,000 cells per well, in a total volume of 200 μL per well of MEM(E) plus 10% calf serum. After overnight incubation at 37° C., drug and HSV-1 was added at the rate of 100 PFU/well. ELISA plates were blocked with 200 μL per well of 10% calf serum and 0.05% tween in HBS. After incubation for 30 minutes, the blocking agent was rinsed two times with HBS-T. A 1:400 dilution of AP conjugated rabbit anti-HSV-1 antibody in HBS-F was added. Plates were sealed with adhesive sheet, and incubated on rocker for one hour at 37° C. Plates were developed in the dark with 100 μL per well of substrate solution containing p-nitrophenyl phosphate. Plates were read at […]. Drug effects were calculated as a percentage of the reduction in virus in the presence of each drug concentration compared to the titer obtained in the absence of drug. Acyclovir was used as a positive control in all experiments.
as §3

HIV-1 = HIV-1 reverse transcriptase assay in infected CEM cells; format: cell-based, strain IIIB of HIV-1
Protocol: (d) HIV-1. Reverse transcriptase (RT) was employed as a marker for HIV-1. This assay measured the presence of HIV in supernatants of CEM cells infected with strain IIIB of HIV-1 by the amount of RT activity. Cells were grown, infected, and incubated in the presence of seven concentrations (one-half log10 dilutions) beginning at 1 or 100 μM of compounds to be assayed. Procedures and the RT assay were performed as detailed previously. Kucera, L. S., et al., AIDS Res. Human Retroviruses 9:307-314 (1993); White, E. L., et al., Antiviral Res. 16:257-266 (1991).

HFF cells = assay: Cytotoxicity in stationary HFF cells, microscopic inspection; format: cell-based, human
Protocol: as §1
(§4) Cytotoxicity assays. Two different assays were used to explore cytotoxicity of selected compounds as we have detailed previously. (i) Cytotoxicity produced in stationary HFF cells and in growing CEM cells was determined by microscopic inspection of cells used in plaque and RT assays which were not affected by the virus. Turk, S. R., et al., Antimicrob. Agents Chemother. 31:544-550 (1987). (ii) The effect of compounds during two population doublings of KB cells was determined by crystal violet staining and spectrophotometric quantitation of dye eluted from stained cells. Prichard, M. N., et al., Antimicrob. Agents Chemother. 35:1060-1065 (1991).
as §3

KB cells = assay: Cytotoxicity in KB cells, growth over two population doublings; format: cell-based
Protocol: as §1, §4, §3

CEM cells = assay: Cytotoxicity in growing CEM cells, microscopic inspection; format: cell-based
Protocol: as §1, §4, §3

[1] = Example 26, high multiplicity of infection (moi), read-out: HIV-1 IC50, reverse transcriptase assay
[2] = reverse transcriptase assay, CEM cells, low moi (footnote c of the 5th table), read-out: HIV-1, IC50
[3] = KB cell growth, read-out: Cytotoxicity IC50 KB (growth)
[4] = Example 26, listed as S-1 (B = 2-amino-6-methoxy-purine), Example 22
[5] = Example 26, listed as R-1 (B = 2-amino-6-methoxy-purine), Example 22

Compound | IC50 (HCMV; Example 26) [µM] | IC50 (HSV-1; Example 26) [µM] | IC50 (HIV-1; [1]) [µM] | IC50 (HFF cells) [µM] | IC50 (KB cells) [µM] | IC50 (CEM cells) [µM] | other results
Nc1nc2c(ncn2C=C2CC2CO)c(=O)[nH]1 (stereo not shown) [R-1 (B = guanine), Example 22] | > 100 | > 100 | > 100 | > 100 | > 100 | > 100 | –
COC(=O)[C@H](C)NP(=O)(OCC1CC1=Cn1cnc2c(N)nc(N)nc21)Oc1ccccc1 (stereo partly drawn) [3 (B = 2,6-diaminopurine), Example 15, Methyl Phenylphosphoro-L-alaninate of syn-2,6-diamino-N^9-(2-Hydroxycyclopropylidene-methyl)purine] | – | – | – | – | – | – | IC50 (HCMV): 4 µM; IC50 (HSV-1; BSC-1 cells): 50 µM; IC50 (HIV-1; [2]): 0.26 µM; IC50 (HFF cells; stationary HFF cells, visual, read-out: Cytotoxicity IC50 HFF (visual)): > 100 µM; IC50 (KB cells; [3]): 40 µM
COc1nc(N)nc2c1ncn2C=C1CC1CO (stereo not shown) [listing 1 of 2 here] | – | – | – | – | – | – | IC50 (HCMV; [4]): 2.5 µM; IC50 (HSV-1; [4]): 20 µM; IC50 (HIV-1; Example 26, high multiplicity of infection (moi), listed as S-1 (B = 2-amino-6-methoxy-purine), Example 22, read-out: HIV-1 IC50, reverse transcriptase assay): 42 µM
Nc1nc(Cl)c2ncn(C=C3CC3CO)c2n1 (stereo not shown) [R-1 (B = 2-amino-6-chloropurine), Example 22] | 30 | > 100 | > 100 | 32 | > 100 | > 100 | –
[N-]=[N+]=Nc1nc(N)nc2c1ncn2C=C1CC1CO (stereo not drawn) [syn-2-Amino-6-azido-N^9-(2-hydroxymethyl-cyclopropylidene-methyl)purine] | 41 | > 100 | > 100 | > 100 | > 100 | > 100 | activity against HCMV (in words) (HCMV; Example 26): good activity
Nc1nc(N)c2ncn(C=C3CC3CO)c2n1 (stereo not shown) [S-1 (B = 2,6-diaminopurine), Example 22] | 21 | > 100 | > 100 | 21 | > 100 | > 100 | –
Nc1nc(NC2CC2)c2ncn(C=C3CC3CO)c2n1 (stereo not shown) [S-1 (B = 2-aminopurine-6-cyclo-propylaminopurine), Example 2] | 1.8 | 20 | 65 | > 100 | > 100 | > 100 | –
Nc1nc(NC2CC2)c2ncn(C=C3CC3CO)c2n1 (stereo not shown) [R-1 (B = 2-aminopurine-6-cyclo-propylaminopurine), Example 2] | > 100 | > 100 | > 100 | > 100 | > 100 | > 100 | –
COc1nc(N)nc2c1ncn2C=C1CC1CO (stereo not shown) [listing 2 of 2 here] | – | – | – | > 100 | > 100 | > 100 | IC50 (HCMV; [5]): > 100 µM; IC50 (HSV-1; [5]): > 100 µM; IC50 (HIV-1; Example 26, high multiplicity of infection (moi), listed as R-1 (B = 2-amino-6-methoxy-purine), Example 22, read-out: HIV-1 IC50, reverse transcriptase assay): > 100 µM
Nc1ncnc2c1ncn2/C=C1/C[C@@H]1CO [S-1 (B = adenine), Example 24, (S)-(+)-Synadenol] | 2.4 | 8.8 | 1.2 | 100 | 80 | > 100 | –
Nc1nc(Cl)c2ncn(C=C3CC3CO)c2n1 (stereo not shown) [S-1 (B = 2-amino-6-chloropurine), Example 22] | 1.8 | 45 | > 100 | > 100 | > 100 | > 100 | –
Nc1ncnc2c1ncn2/C=C1/C[C@H]1CO [R-1 (B = adenine), Example 23, (R)-(−)-Synadenol] | 2.9 | 38 | 7 | > 100 | > 100 | > 100 | –
Nc1nc2c(ncn2C=C2CC2CO)c(=O)[nH]1 (stereo not shown) [S-1 (B = guanine), Example 22] | 2.5 | 45 | > 100 | > 100 | > 100 | > 100 | –
COc1nc(N)nc2c1ncn2C=C1CC1CO (stereo not drawn) [syn-2-Amino-6-methoxy-N^9-(2-hydroxymethyl-cyclopropylidenemethyl)purine] | 3.1 | 33 | > 100 | – | – | – | activity against HCMV (in words) (HCMV; Example 26): good activity; activity against HSV-1 (in words) (HSV-1; Example 26): significant activity
COC(=O)[C@H](C)NP(=O)(OCC1CC1=Cn1cnc2c(N)ncnc21)Oc1ccccc1 (stereo partly drawn) [4 (B = adenine), Example 14, Methyl Phenylphosphoro-L-alaninate of anti-N^9-(2-Hydroxymethylcyclopropylidenemethyl)adenine] | – | – | – | – | – | – | IC50 (HCMV): 21 µM; IC50 (HSV-1; BSC-1 cells): 65 µM; IC50 (HIV-1; [2]): 1.6 µM; IC50 (KB cells; [3]): 50 µM; IC50 (CEM cells; growing CEM cells, visual, read-out: Cytotoxicity IC50 CEM (visual)): 66 µM
Nc1nc(N)c2ncn(C=C3CC3CO)c2n1 (stereo not shown) [R-1 (B = 2,6-diaminopurine), Example 22] | > 100 | > 100 | > 100 | > 100 | > 100 | > 100 | –
